The values that follow are results of earlier work, collected in patent US6426338B1, “Therapy for constipation” (priority 1997, dated 2002).

Series [1] relates to patients with constipation. The following applies: colchicine alone, in a lower dose.

Take `CN[C@H](CC(C)C)C(=O)N[C@H]1C(=O)N[C@@H](CC(N)=O)C(=O)N[C@H]2C(=O)N[C@H]3C(=O)N[C@H](C(=O)N[C@H](C(=O)O)c4cc(O)cc(O)c4-c4cc3ccc4O)[C@H](O)c3ccc(c(Cl)c3)Oc3cc2cc(c3O[C@@H]2O[C@H](CO)[C@@H](O)[C@H](O)[C@H]2O[C@H]2C[C@](C)(N)[C@H](O)[C@H](C)O2)Oc2ccc(cc2Cl)[C@H]1O` [vancomycin]: where the note is “long-term use as antibiotic”, the side-effect entry is recorded as “neurotoxic”. Turning to `COc1cc2c(c(OC)c1OC)-c1ccc(OC)c(=O)cc1[C@@H](NC(C)=O)CC2` [colchicine], the stimulation of defecation result in series [1] is recorded as “insufficient in most patients to stimulate defecation”. Further, the long-term toxicity entry (given alone in the doses of Verne et al., long-term) is “can cause muscle and nerve damage (myopathy and neuropathy)”.
